# Measured values: patent US20260226086A1, “COMPOUNDS AND COMPOSITIONS AS STAT3 DEGRADERS AND USES THEREOF” (REGENTS OF THE UNIVERSITY OF MICHIGAN, priority 2023, published 2026)
# What was measured:
# Type in all cases: cell-based
# STAT3 = target: T1, STAT3 (Homo sapiens, UniProt P40763); assay: HiBiT assay, STAT3 degradation in STAT3-HiBiT KI HeLa cells; conditions: for DC50 / Dmax at 1 µM: 24 h; for DC50: read-out: STAT3 Degradation (HeLa 24 h HiBit) DC50
# T1 construct: This cell line is a clone created by using CRISPR-Cas9 to fuse HiBiT to the 3′ end of STAT3 in HeLa cells; host or cells: STAT3-HiBiT KI HeLa cell line (CRISPR-Cas9 knock-in clone)
# Description: STAT3 degradation may be determined by HiBiT assay. STAT3-HiBiT KI HeLa cell line, which is a clone created by using CRTISPR-Cas9 to fuse HiBiT to the 3′ end of STAT3 in HeLa cells, may be used for this assay. In a typical procedure, cells seeded at certain amounts of cells (e.g., 20000 cells) per well are incubated with serially diluted compounds for certain period of time (e.g., 24 hours) under certain conditions (e.g., at 37° C. with 5% CO2). At the end of treatment, Nano-Glo HiBiT Lytic Detection reagents is added to the wells and luminescence is acquired on TECAN SPARK plate reader. Untreated cells are used as control. Data points are fit with a four-parameter equation to generate a concentration-response curve. IC50 values are calculated using a nonlinear regression analysis of the mean±SD from triplicate.
# STAT3-HiBiT KI HeLa cell line was purchased from Promega. This cell line is a clone created by using CRISPR-Cas9 to fuse HiBiT to the 3′ end of STAT3 in HeLa cells. DMEM medium and FBS were purchased from Gibco/Thermo Fisher Scientific. STAT3 degradation was determined based on quantification of luminescent signal using Nano-Glo HiBiT Lytic Detection System. In a typical procedure, cells seeded at 20000 cells per well in 96-well white plates (Corning) were incubated with serially diluted compounds for 24 hours at 37° C. with 5% CO2. At the end of treatment, Nano-Glo HiBiT Lytic Detection reagents was added to the wells and luminescence was acquired on TECAN SPARK plate reader. Untreated cells were used as control. Data points were fit with a four-parameter equation to generate a concentration-response curve. IC50 values were calculated using a nonlinear regression analysis of the mean±SD from triplicate.
# SU-DHL-1 cells = assay: CellTiter-Glo 2.0 cell viability assay, SU-DHL-1; conditions: 4 days
# Description: (§1) For example, cell viability may be determined by CellTiter-Glo 2.0 Cell Viability Assay. In a typical procedure, cells seeded at certain amounts of cells (e.g., 1000 cells) per well are incubated with serially diluted compounds for certain period (e.g., 4 days) under certain conditions (e.g., at 37° C. with 5% CO2). At the end of treatment, CellTiter-Glo 2.0 is added to the wells and luminescence is acquired on TECAN SPARK plate reader. Untreated cells are used as control, Data points are fit with an equation (e.g., a four-parameter equation) to generate a concentration-response curve. IC50 values are calculated using a nonlinear regression analysis of the mean±SD from triplicate.
# (§2) SU-DHL-1 and SUP-M2 cell viability was determined by CellTiter-Glo 2.0 Cell Viability Assay (Promega). SU-DHL-1 cell line was purchased from ATCC (Manassas, VA) and SUP-M2 (ACC-509) was purchased from DSMZ (Germany). RPMI 1640 medium and fetal bovine serum (FBS) were purchased from Gibco/Thermo Fisher Scientific. In a typical procedure, cells seeded at 1000 cells per well in 384-well white plates (Corning) were incubated with serially diluted compounds for 4 days at 37° C. with 5% C02. At the end of treatment, CellTiter-Glo 2.0 was added to the wells and luminescence was acquired on TECAN SPARK plate reader. Untreated cells were used as control. Data points were fit with a four-parameter equation to generate a concentration-response curve. IC50 values were calculated using a nonlinear regression analysis of the mean±SD from triplicate.
# SUP-M2 cells = assay: CellTiter-Glo 2.0 cell viability assay, SUP-M2; conditions: 4 days
# Description: as §1, §2
# T1 sequence (P40763 whole entry): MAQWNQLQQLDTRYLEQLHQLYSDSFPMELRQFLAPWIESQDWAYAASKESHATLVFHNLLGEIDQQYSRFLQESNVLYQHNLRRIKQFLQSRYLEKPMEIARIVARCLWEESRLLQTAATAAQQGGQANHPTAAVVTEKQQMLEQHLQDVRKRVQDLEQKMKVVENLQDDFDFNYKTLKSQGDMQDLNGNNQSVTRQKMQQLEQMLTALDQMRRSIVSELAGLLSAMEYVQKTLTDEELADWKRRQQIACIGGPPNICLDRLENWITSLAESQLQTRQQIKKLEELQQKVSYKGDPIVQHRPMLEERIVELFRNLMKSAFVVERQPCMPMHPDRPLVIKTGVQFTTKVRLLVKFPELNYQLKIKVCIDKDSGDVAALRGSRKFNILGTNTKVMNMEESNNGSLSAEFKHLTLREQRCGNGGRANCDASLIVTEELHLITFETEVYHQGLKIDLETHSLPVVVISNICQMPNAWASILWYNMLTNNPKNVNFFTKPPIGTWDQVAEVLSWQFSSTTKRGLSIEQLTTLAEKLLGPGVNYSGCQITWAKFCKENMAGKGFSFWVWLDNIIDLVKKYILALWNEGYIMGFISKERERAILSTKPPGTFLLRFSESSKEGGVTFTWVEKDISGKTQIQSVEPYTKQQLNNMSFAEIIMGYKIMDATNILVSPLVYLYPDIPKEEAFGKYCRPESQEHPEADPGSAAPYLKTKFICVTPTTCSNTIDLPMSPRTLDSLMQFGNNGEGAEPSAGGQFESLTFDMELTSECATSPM
SMILES,DC50 (STAT3),IC50 (SU-DHL-1 cells),IC50 (SUP-M2 cells),Dmax at 1 µM (STAT3; @1 μM),"IC50 (SU-DHL-1 cells; Homo sapiens, 96 h)","IC50 (SUP-M2 cells; SUP-M2, 96 h)",STAT3 Degradation (HeLa 24 h HiBit) Dmax (@1 μM) (STAT3; @1 μM)
"Cc1ncsc1-c1ccc([C@H](C)NC(=O)[C@@H]2C[C@@H](O)CN2C(=O)[C@@H](n2cc(CCCCC(=O)N3CC[C@H]4CC[C@@H](C(=O)N[C@@H](CCC(N)=O)C(=O)NC(c5ccccc5)c5ccccc5)N4C(=O)[C@@H](NC(=O)c4cc5cc(C(=O)P(=O)(O)O)ccc5[nH]4)C3)nn2)C(C)(C)C)cc1 [Compound 57, (2-(((5S,8S,10aR)-8-(((S)-5-amino-1-(benzhydrylamino)-1,5-dioxopentan-2-yl)carbamoyl)-3-(5-(1-((S)-1-((2S,4R)-4-hydroxy-2-(((S)-1-(4-(4-methylthiazol-5-yl)phenyl)ethyl)carbamoyl)pyrrolidin-1-yl)-3,3-dimethyl-1-oxobutan-2-yl)-1H-1,2,3-triazol-4-yl)pentanoyl)-6-oxodecahydropyrrolo[1,2-a][1,5]diazocin-5-yl)carbamoyl)-1H-indole-5-carbonyl)phosphonic acid]",100 to 1000 nM,100 to 1000 nM,100 to 1000 nM,,,,
"CC(=O)N1CC[C@H]2CC[C@@H](C(=O)N[C@@H](CCC(N)=O)COc3cccc(CCCC(=O)N4CCC([C@@H](C(=O)N5C[C@H](O)C[C@H]5C(=O)N[C@@H](C)c5ccc(-c6scnc6C)cc5)n5cc(C6CC6)nn5)CC4)c3Cl)N2C(=O)[C@@H](NC(=O)c2cc3cc(C(=O)P(=O)(O)O)ccc3[nH]2)C1 [Compound 37, (2-(((5S,8S,10aR)-3-acetyl-8-(((S)-5-amino-1-(2-chloro-3-(4-(4-((S)-1-(4-cyclopropyl-1H-1,2,3-triazol-1-yl)-2-((2S,4R)-4-hydroxy-2-(((S)-1-(4-(4-methylthiazol-5-yl)phenyl)ethyl)carbamoyl)pyrrolidin-1-yl)-2-oxoethyl)piperidin-1-yl)-4-oxobutyl)phenoxy)-5-oxopentan-2-yl)carbamoyl)-6-oxodecahydropyrrolo[1,2-a][1,5]diazocin-5-yl)carbamoyl)-1H-indole-5-carbonyl)phosphonic acid]",100 to 1000 nM,,,60 to 80%,> 1000 nM,10 to 100 nM,
"Cc1ncsc1-c1ccc([C@H](C)NC(=O)[C@@H]2C[C@@H](O)CN2C(=O)[C@@H](NC(=O)CCCCCCC(=O)N2CC[C@H]3CC[C@@H](C(=O)N[C@@H](CCC(N)=O)C(=O)NC(c4ccccc4)c4ccccc4)N3C(=O)[C@@H](NC(=O)c3cc4cc(C(=O)P(=O)(O)O)ccc4[nH]3)C2)C(C)(C)C)cc1 [Compound 51, (2-(((5S,8S,10aR)-8-(((S)-5-amino-1-(benzhydrylamino)-1,5-dioxopentan-2-yl)carbamoyl)-3-(8-(((S)-1-((2S,4R)-4-hydroxy-2-(((S)-1-(4-(4-methylthiazol-5-yl)phenyl)ethyl)carbamoyl)pyrrolidin-1-yl)-3,3-dimethyl-1-oxobutan-2-yl)amino)-8-oxooctanoyl)-6-oxodecahydropyrrolo[1,2-a][1,5]diazocin-5-yl)carbamoyl)-1H-indole-5-carbonyl)phosphonic acid]",100 to 1000 nM,,,,100 to 1000 nM,100 to 1000 nM,
"COCCOCCOCCOCCN1CC[C@H]2CC[C@@H](C(=O)N[C@@H](CCC(N)=O)COc3cccc(CCCc4cn([C@H](C(=O)N5C[C@H](O)C[C@H]5C(=O)N[C@@H](C)c5ccc(-c6scnc6C)cc5)C(C)(C)C)nn4)c3Cl)N2C(=O)[C@@H](NC(=O)c2cc3cc(C(=O)P(=O)(O)O)ccc3[nH]2)C1 [Compound 31, (2-(((5S,8S,10aR)-8-(((S)-5-amino-1-(2-chloro-3-(3-(1-((S)-1-((2S,4R)-4-hydroxy-2-(((S)-1-(4-(4-methylthiazol-5-yl)phenyl)ethyl)carbamoyl)pyrrolidin-1-yl)-3,3-dimethyl-1-oxobutan-2-yl)-1H-1,2,3-triazol-4-yl)propyl)phenoxy)-5-oxopentan-2-yl)carbamoyl)-6-oxo-3-(2,5,8,11-tetraoxatridecan-13-yl)decahydropyrrolo[1,2-a][1,5]diazocin-5-yl)carbamoyl)-1H-indole-5-carbonyl)phosphonic acid]",10 to 100 nM,,,> 80%,10 to 100 nM,10 to 100 nM,
"CC(=O)N1CC[C@H]2CC[C@@H](C(=O)N[C@@H](CCC(N)=O)COc3cccc(CCCCN4CCC([C@@H](C(=O)N5C[C@H](O)C[C@H]5C(=O)N[C@@H](C)c5ccc(-c6scnc6C)cc5)n5cc(C6CC6)nn5)CC4)c3Cl)N2C(=O)[C@@H](NC(=O)c2cc3cc(C(=O)P(=O)(O)O)ccc3[nH]2)C1 [Compound 38, (2-(((5S,8S,10aR)-3-acetyl-8-(((S)-5-amino-1-(2-chloro-3-(4-(4-((S)-1-(4-cyclopropyl-1H-1,2,3-triazol-1-yl)-2-((2S,4R)-4-hydroxy-2-(((S)-1-(4-(4-methylthiazol-5-yl)phenyl)ethyl)carbamoyl)pyrrolidin-1-yl)-2-oxoethyl)piperidin-1-yl)butyl)phenoxy)-5-oxopentan-2-yl)carbamoyl)-6-oxodecahydropyrrolo[1,2-a][1,5]diazocin-5-yl)carbamoyl)-1H-indole-5-carbonyl)phosphonic acid]",100 to 1000 nM,,,60 to 80%,> 1000 nM,10 to 100 nM,
"COCCOCCOC[C@H](NC(=O)[C@@H]1C[C@@H](O)CN1C(=O)[C@@H](n1cc(CCCc2cccc(OC[C@H](CCC(N)=O)NC(=O)[C@@H]3CC[C@@H]4CCN(C(C)=O)C[C@H](NC(=O)c5cc6cc(C(=O)P(=O)(O)O)ccc6[nH]5)C(=O)N43)c2Cl)nn1)C(C)(C)C)c1ccc(-c2scnc2C)cc1 [Compound 41, (2-(((5S,8S,10aR)-3-acetyl-8-(((S)-5-amino-1-(2-chloro-3-(3-(1-((S)-1-((2S,4R)-4-hydroxy-2-(((R)-2-(2-(2-methoxyethoxy)ethoxy)-1-(4-(4-methylthiazol-5-yl)phenyl)ethyl)carbamoyl)pyrrolidin-1-yl)-3,3-dimethyl-1-oxobutan-2-yl)-1H-1,2,3-triazol-4-yl)propyl)phenoxy)-5-oxopentan-2-yl)carbamoyl)-6-oxodecahydropyrrolo[1,2-a][1,5]diazocin-5-yl)carbamoyl)-1H-indole-5-carbonyl)phosphonic acid]",10 to 100 nM,,,,,10 to 100 nM,A (A (>=80%))
"CCS(=O)(=O)c1ccc(CNC(=O)[C@H](CCC(N)=O)NC(=O)[C@@H]2CC[C@@H]3CCN(C(=O)CCCCc4cn([C@@H](C(=O)N5C[C@H](O)C[C@H]5C(=O)N[C@H](C)c5ccc(-c6scnc6C)cc5)C5CCN(C)CC5)nn4)C[C@H](NC(=O)c4cc5cc(C(=O)P(=O)(O)O)ccc5[nH]4)C(=O)N32)cc1 [Compound 21, (2-(((5S,8S,10aR)-8-(((S)-5-amino-1-((4-(ethylsulfonyl)benzyl)amino)-1,5-dioxopentan-2-yl)carbamoyl)-3-(5-(1-((R)-2-((2S,4R)-4-hydroxy-2-(((R)-1-(4-(4-methylthiazol-5-yl)phenyl)ethyl)carbamoyl)pyrrolidin-1-yl)-1-(1-methylpiperidin-4-yl)-2-oxoethyl)-1H-1,2,3-triazol-4-yl)pentanoyl)-6-oxodecahydropyrrolo[1,2-a][1,5]diazocin-5-yl)carbamoyl)-1H-indole-5-carbonyl)phosphonic acid]",< 10 nM,,,> 80%,,< 10 nM,
